{"source": "patent US20260007681A1", "about": "“INDOLE DERIVATIVES AS ESTROGEN RECEPTOR DEGRADERS” (REGENTS OF THE UNIVERSITY OF MICHIGAN, priority 2022, published 2026)"}
{"molecular_target": "ER (Homo sapiens (Human), UniProt P03372)", "sequence (P03372 whole entry)": "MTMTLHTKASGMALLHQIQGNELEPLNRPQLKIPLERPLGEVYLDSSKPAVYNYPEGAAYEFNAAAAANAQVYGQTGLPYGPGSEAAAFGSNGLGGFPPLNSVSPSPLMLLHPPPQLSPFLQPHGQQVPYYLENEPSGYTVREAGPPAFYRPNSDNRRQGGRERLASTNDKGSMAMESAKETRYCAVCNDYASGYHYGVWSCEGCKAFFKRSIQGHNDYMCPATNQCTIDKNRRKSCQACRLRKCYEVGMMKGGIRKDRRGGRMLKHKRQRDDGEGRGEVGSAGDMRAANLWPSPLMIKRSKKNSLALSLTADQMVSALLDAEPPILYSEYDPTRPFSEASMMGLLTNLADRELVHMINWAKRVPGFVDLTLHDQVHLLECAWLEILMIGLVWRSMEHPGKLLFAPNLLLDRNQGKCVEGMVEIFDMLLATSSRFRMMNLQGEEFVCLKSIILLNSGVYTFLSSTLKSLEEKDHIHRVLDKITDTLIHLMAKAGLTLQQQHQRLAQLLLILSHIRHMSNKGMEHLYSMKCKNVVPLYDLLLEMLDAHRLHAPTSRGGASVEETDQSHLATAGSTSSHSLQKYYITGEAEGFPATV", "assay": "Western blot analysis (Compounds B1-B278)", "format": "cell-based", "settings": "ER degradation by traditional Western blot; DC50 classes", "outline": "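Relative target-protein levels come from densitometry of immunoblots, normalized to GAPDH. Lysates from treated cells were prepared in RIPA buffer (pH 7.6) containing protease inhibitors, and equal protein amounts, checked by BCA, were separated on 10% gels and blotted onto PVDF.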"}
{"smiles": "C[C@@H]1Cc2c([nH]c3ccccc23)[C@@H](c2c(F)cc(N3CC4(CCN4CC(=O)N4Cc5cc6c(cc5C4)C(=O)N(C4CCC(=O)NC4=O)C6=O)C3)cc2F)N1CC(F)F", "note": "(stereo partly drawn) [Compound B191, 6-(2-(6-(4-((1R,3R)-2-(2,2-difluoroethyl)-3-methyl-2,3,4,9-tetrahydro-1H-pyrido[3,4-b]indol-1-yl)-3,5-difluorophenyl)-1,6-diazaspiro[3.3]heptan-1-yl)acetyl)-2-(2,6-dioxopiperidin-3-yl)-6,7-dihydropyrrolo[3,4-f]isoindole-1,3(2H,5H)-dione]", "Traditional Western Degradation Potency": "C (“C”: >100 nM)"}
{"smiles": "C[C@@H]1Cc2c([nH]c3ccccc23)[C@@H](c2c(F)cc(N3CC4(CCN4CC(=O)N4Cc5cc6c(cc5C4)C(=O)N(C4CCC(=O)NC4=O)C6)C3)cc2F)N1CC(F)F", "note": "(stereo partly drawn) [Compound B192, 3-(6-(2-(6-(4-((1R,3R)-2-(2,2-difluoroethyl)-3-methyl-2,3,4,9-tetrahydro-1H-pyrido[3,4-b]indol-1-yl)-3,5-difluorophenyl)-1,6-diazaspiro[3.3]heptan-1-yl)acetyl)-1-oxo-3,5,6,7-tetrahydropyrrolo[3,4-f]isoindol-2(1H)-yl)piperidine-2,6-dione]", "Traditional Western Degradation Potency": "C (“C”: >100 nM)"}
{"smiles": "C[C@@H]1Cc2c([nH]c3ccccc23)[C@@H](c2c(F)cc(N3CCC4(CCN(CC(=O)N5Cc6cc7c(cc6C5)C(=O)N(C5CCC(=O)NC5=O)C7=O)C4)CC3)cc2F)N1CC(F)F", "note": "(stereo partly drawn) [Compound B193, 6-(2-(8-(4-((1R,3R)-2-(2,2-difluoroethyl)-3-methyl-2,3,4,9-tetrahydro-1H-pyrido[3,4-b]indol-1-yl)-3,5-difluorophenyl)-2,8-diazaspiro[4.5]decan-2-yl)acetyl)-2-(2,6-dioxopiperidin-3-yl)-6,7-dihydropyrrolo[3,4-f]isoindole-1,3(2H,5H)-dione]", "Traditional Western Degradation Potency": "A (“A”: <10 nM)"}
{"smiles": "C[C@@H]1Cc2c([nH]c3ccccc23)[C@@H](c2c(F)cc(N3CCC4(CCN(CC(=O)N5Cc6cc7c(cc6C5)C(=O)N(C5CCC(=O)NC5=O)C7)C4)CC3)cc2F)N1CC(F)F", "note": "(stereo partly drawn) [Compound B194, 3-(6-(2-(8-(4-((1R,3R)-2-(2,2-difluoroethyl)-3-methyl-2,3,4,9-tetrahydro-1H-pyrido[3,4-b]indol-1-yl)-3,5-difluorophenyl)-2,8-diazaspiro[4.5]decan-2-yl)acetyl)-1-oxo-3,5,6,7-tetrahydropyrrolo[3,4-f]isoindol-2(1H)-yl)piperidine-2,6-dione]", "Traditional Western Degradation Potency": "A (“A”: <10 nM)"}
{"smiles": "C[C@@H]1Cc2c([nH]c3ccccc23)[C@@H](c2c(F)cc(N3CCC4(CCN(C(=O)CN5Cc6cc7c(cc6C5)C(=O)N(C5CCC(=O)NC5=O)C7)C4)CC3)cc2F)N1CC(F)F", "note": "(stereo partly drawn) [Compound B195, 3-(6-(2-(8-(4-((1R,3R)-2-(2,2-difluoroethyl)-3-methyl-2,3,4,9-tetrahydro-1H-pyrido[3,4-b]indol-1-yl)-3,5-difluorophenyl)-2,8-diazaspiro[4.5]decan-2-yl)-2-oxoethyl)-1-oxo-3,5,6,7-tetrahydropyrrolo[3,4-f]isoindol-2(1H)-yl)piperidine-2,6-dione]", "Traditional Western Degradation Potency": "A (“A”: <10 nM)"}
{"smiles": "C[C@@H]1Cc2c([nH]c3ccccc23)[C@@H](c2c(F)cc(N3CC[C@@H](CN4CCC(C(=O)N5Cc6cc7c(cc6C5)C(=O)N(C5CCC(=O)NC5=O)C7)CC4)C3)cc2F)N1CC(F)F", "note": "(stereo partly drawn) [Compound B196, 3-(6-(1-(((S)-1-(4-((1R,3R)-2-(2,2-difluoroethyl)-3-methyl-2,3,4,9-tetrahydro-1H-pyrido[3,4-b]indol-1-yl)-3,5-difluorophenyl)pyrrolidin-3-yl)methyl)piperidine-4-carbonyl)-1-oxo-3,5,6,7-tetrahydropyrrolo[3,4-f]isoindol-2(1H)-yl)piperidine-2,6-dione]", "Traditional Western Degradation Potency": "A (“A”: <10 nM)"}
{"smiles": "C[C@@H]1Cc2c([nH]c3ccccc23)[C@@H](c2c(F)cc(N3CC[C@@H](CN4CCC(C(=O)N5Cc6cc7c(cc6C5)C(=O)N(C5CCC(=O)NC5=O)C7=O)CC4)C3)cc2F)N1CC(F)F", "note": "(stereo partly drawn) [Compound B197, 6-(1-(((S)-1-(4-((1R,3R)-2-(2,2-difluoroethyl)-3-methyl-2,3,4,9-tetrahydro-1H-pyrido[3,4-b]indol-1-yl)-3,5-difluorophenyl)pyrrolidin-3-yl)methyl)piperidine-4-carbonyl)-2-(2,6-dioxopiperidin-3-yl)-6,7-dihydropyrrolo[3,4-f]isoindole-1,3(2H,5H)-dione]", "Traditional Western Degradation Potency": "A (“A”: <10 nM)"}
{"smiles": "C[C@@H]1Cc2c([nH]c3ccccc23)[C@@H](c2c(F)cc(N3CCC4(CCN(C(=O)CN5Cc6cc7c(cc6C5)C(=O)N(C5CCC(=O)NC5=O)C7=O)CC4)CC3)cc2F)N1CC(F)(F)F", "note": "(stereo partly drawn) [Compound B199, 6-(2-(9-(3,5-difluoro-4-((1R,3R)-3-methyl-2-(2,2,2-trifluoroethyl)-2,3,4,9-tetrahydro-1H-pyrido[3,4-b]indol-1-yl)phenyl)-3,9-diazaspiro[5.5]undecan-3-yl)-2-oxoethyl)-2-(2,6-dioxopiperidin-3-yl)-6,7-dihydropyrrolo[3,4-f]isoindole-1,3(2H,5H)-dione]", "Traditional Western Degradation Potency": "B (“B”: 10-100 nM)"}
{"smiles": "C[C@@H]1Cc2c([nH]c3ccccc23)[C@@H](c2c(F)cc(N3CCC4(CC3)CN(C(=O)CN3Cc5cc6c(cc5C3)C(=O)N(C3CCC(=O)NC3=O)C6=O)C4)cc2F)N1CC(F)(F)F", "note": "(stereo partly drawn) [Compound B200, 6-(2-(7-(3,5-difluoro-4-((1R,3R)-3-methyl-2-(2,2,2-trifluoroethyl)-2,3,4,9-tetrahydro-1H-pyrido[3,4-b]indol-1-yl)phenyl)-2,7-diazaspiro[3.5]nonan-2-yl)-2-oxoethyl)-2-(2,6-dioxopiperidin-3-yl)-6,7-dihydropyrrolo[3,4-f]isoindole-1,3(2H,5H)-dione]", "Traditional Western Degradation Potency": "B (“B”: 10-100 nM)"}
{"smiles": "C[C@@H]1Cc2c([nH]c3ccccc23)[C@@H](c2c(F)cc(N3CCC(C(=O)N4CCC(N5Cc6cc7c(cc6C5)C(=O)N(C5CCC(=O)NC5=O)C7=O)CC4)CC3)cc2F)N1CC(F)(F)F", "note": "(stereo partly drawn) [Compound B201, 6-(1-(1-(3,5-difluoro-4-((1R,3R)-3-methyl-2-(2,2,2-trifluoroethyl)-2,3,4,9-tetrahydro-1H-pyrido[3,4-b]indol-1-yl)phenyl)piperidine-4-carbonyl)piperidin-4-yl)-2-(2,6-dioxopiperidin-3-yl)-6,7-dihydropyrrolo[3,4-f]isoindole-1,3(2H,5H)-dione]", "Traditional Western Degradation Potency": "B (“B”: 10-100 nM)"}
{"smiles": "C[C@@H]1Cc2c([nH]c3ccccc23)[C@@H](c2c(F)cc(N3CC(C(=O)N4CC(N5Cc6cc7c(cc6C5)C(=O)N(C5CCC(=O)NC5=O)C7=O)C4)C3)cc2F)N1CC(F)F", "note": "(stereo partly drawn) [Compound B202, 6-(1-(1-(4-((1R,3R)-2-(2,2-difluoroethyl)-3-methyl-2,3,4,9-tetrahydro-1H-pyrido[3,4-b]indol-1-yl)-3,5-difluorophenyl)azetidine-3-carbonyl)azetidin-3-yl)-2-(2,6-dioxopiperidin-3-yl)-6,7-dihydropyrrolo[3,4-f]isoindole-1,3(2H,5H)-dione]", "Traditional Western Degradation Potency": "B (“B”: 10-100 nM)"}
{"smiles": "C[C@@H]1Cc2c([nH]c3ccccc23)[C@@H](c2c(F)cc(N3CC(C(=O)N4CC(CN5Cc6cc7c(cc6C5)C(=O)N(C5CCC(=O)NC5=O)C7=O)C4)C3)cc2F)N1CC(F)F", "note": "(stereo partly drawn) [Compound B203, 6-((1-(1-(4-((1R,3R)-2-(2,2-difluoroethyl)-3-methyl-2,3,4,9-tetrahydro-1H-pyrido[3,4-b]indol-1-yl)-3,5-difluorophenyl)azetidine-3-carbonyl)azetidin-3-yl)methyl)-2-(2,6-dioxopiperidin-3-yl)-6,7-dihydropyrrolo[3,4-f]isoindole-1,3(2H,5H)-dione]", "Traditional Western Degradation Potency": "B (“B”: 10-100 nM)"}
{"smiles": "C[C@@H]1Cc2c([nH]c3ccccc23)[C@@H](c2c(F)cc(N3CCC4(CCN(CC5Cc6cc7c(cc6C5)C(=O)N(C5CCC(=O)NC5=O)C7=O)CC4)CC3)cc2F)N1CC(F)(F)F", "note": "(stereo partly drawn) [Compound B204, 6-((9-(3,5-difluoro-4-((1R,3R)-3-methyl-2-(2,2,2-trifluoroethyl)-2,3,4,9-tetrahydro-1H-pyrido[3,4-b]indol-1-yl)phenyl)-3,9-diazaspiro[5.5]undecan-3-yl)methyl)-2-(2,6-dioxopiperidin-3-yl)-6,7-dihydrocyclopenta[f]isoindole-1,3(2H,5H)-dione]", "Traditional Western Degradation Potency": "C (“C”: >100 nM)"}
{"smiles": "C[C@@H]1Cc2c([nH]c3ccccc23)[C@@H](c2c(F)cc(N3CCC4(CC3)CN(CC3Cc5cc6c(cc5C3)C(=O)N(C3CCC(=O)NC3=O)C6=O)C4)cc2F)N1CC(F)F", "note": "(stereo partly drawn) [Compound B205, 6-((7-(4-((1R,3R)-2-(2,2-difluoroethyl)-3-methyl-2,3,4,9-tetrahydro-1H-pyrido[3,4-b]indol-1-yl)-3,5-difluorophenyl)-2,7-diazaspiro[3.5]nonan-2-yl)methyl)-2-(2,6-dioxopiperidin-3-yl)-6,7-dihydrocyclopenta[f]isoindole-1,3(2H,5H)-dione]", "Traditional Western Degradation Potency": "C (“C”: >100 nM)"}
{"smiles": "C[C@@H]1Cc2c([nH]c3ccccc23)[C@@H](c2c(F)cc(N3CCC(C(=O)N4CCC(CN5Cc6cc7c(cc6C5)C(=O)N(C5CCC(=O)NC5=O)C7=O)CC4)CC3)cc2F)N1CC(F)F", "note": "(stereo partly drawn) [Compound B206, 6-((1-(1-(4-((1R,3R)-2-(2,2-difluoroethyl)-3-methyl-2,3,4,9-tetrahydro-1H-pyrido[3,4-b]indol-1-yl)-3,5-difluorophenyl)piperidine-4-carbonyl)piperidin-4-yl)methyl)-2-(2,6-dioxopiperidin-3-yl)-6,7-dihydropyrrolo[3,4-f]isoindole-1,3(2H,5H)-dione]", "Traditional Western Degradation Potency": "C (“C”: >100 nM)"}
